Literature values, collected in patent publication US20070264672A1, “DEVELOPMENT OF A NOVEL ASSAY FOR MGMT (METHYL GUANINE METHYL TRANSFERASE)” (priority 2006, published 2007).

Experiments:
MGMT = molecular target: T1, MGMT (Homo sapiens, UniProt P16455); details: human carcinoma HT-29 cell line, after exposure to the agent
T1 construct: endogenous in cells; host or cells: HT-29 (human carcinoma cell line)
T1 sequence (P16455 1-207): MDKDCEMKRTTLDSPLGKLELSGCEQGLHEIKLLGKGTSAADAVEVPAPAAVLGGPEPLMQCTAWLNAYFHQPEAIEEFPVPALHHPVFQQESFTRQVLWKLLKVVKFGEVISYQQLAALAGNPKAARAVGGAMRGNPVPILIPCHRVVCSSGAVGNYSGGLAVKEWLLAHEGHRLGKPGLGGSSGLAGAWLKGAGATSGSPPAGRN

[1] = tested on: human carcinoma HT-29 cell line; details: combined with BCNU

CN(N=O)C(=O)N[C@H]1C(O)O[C@H](CO)[C@@H](O)[C@@H]1O (mixture of isomers) [streptozotocin]
duration of inhibition of MGMT activity (MGMT): 48 h

Nc1nc(OCc2ccccc2)c2nc[nH]c2n1 [O^6—BG, O^6 benzylguanine]
effect on chemotherapy-induced cytotoxicity after depletion of MGMT (glioma cell lines): enhanced
potentiation of BCNU-induced cytotoxicity over that observed with BCNU alone [1]: three logs
duration of inhibition of MGMT activity (MGMT): 48 h
